The values that follow are results of earlier work, collected in the CATMoS acute toxicity set (Mansouri et al. 2021).

“And” between values parts separate entries of the source, which are not always exact repeats. Equal entries are not always repeated. Where a SMILES comes first, the peptide text is derived from it. Bridges are numbered along the chain shown (N, C = ends). [ ]: non-standard residue; d: D form. The star is where a group is joined. X1 = CC[C@H](C)CCCCC(=O)*; Dab = NCC[C@H](N)C(=O)O

This data set is described as follows: rat acute oral toxicity. Conditions: in vivo.
A word on the LD50: it is the dose at which mortality reaches 50%. Regarding `CCCCN1CCCC1=Nc1ccc(Cl)c(Cl)c1`, the LD50 is 3050 mg/kg.
As for `O=C1CCc2cc(CCCCN3CCN(c4ccccc4Cl)CC3)ccc2N1`, the 50% lethal dose (LD50) is 500 mg/kg.
For `O=C1OCC2C1C1(Cl)C(Cl)=C(Cl)C2(Cl)C1(Cl)Cl` (stereo not given), the LD50 is 105 mg/kg.
Consider `CC1Cc2cc3c(cc2C(c2ccc(N)cc2)=NN1)OCO3` (stereo not given), for which the LD50 was 350 mg/kg.
On to `CCCCC(CC)COP(OCC(CC)CCCC)OCC(CC)CCCC` (stereo not given), for which the LD50 was 6200 mg/kg.
As to `CC(O)COC(=O)CBr` (stereo not given), the LD50 was 664 mg/kg.
`Cc1cnccn1`: the LD50 is 1800 mg/kg.
On to `CCN(CC)C(=O)Cl`, for which the LD50 was 2700 mg/kg.
As for `C[C@H](O)[C@H](O)[C@H]1CNc2[nH]c(N)nc(=O)c2N1`, the LD50 was 1000 mg/kg.
With `O=C1CCCO1`, the LD50 was 1540 mg/kg.
As for `NNC(=O)[C@@H](N)CS`, the LD50 was 1050 mg/kg.
With `Sc1c(Cl)c(Cl)c(Cl)c(Cl)c1Cl`, the LD50 is 11900 mg/kg.
`CCC(O)(CC)c1[nH]ncc1Cl`: the LD50 was 236 mg/kg.
For `CCOCCOCC`, the LD50 is 4390 mg/kg.
For `COc1cc([N+](=O)[O-])ccc1N`, the LD50 was 997 mg/kg.
With `CC[C@H](C)CCCCC(=O)N[C@@H](CCN)C(=O)N[C@H](C(=O)N[C@@H](CCN)C(=O)N[C@H]1CCNC(=O)[C@@H]([C@H](C)O)NC(=O)[C@H](CCN)NC(=O)[C@H](CCN)NC(=O)[C@H](CC(C)C)NC(=O)[C@@H](CC(C)C)NC(=O)[C@H](CCN)NC1=O)[C@@H](C)O` (X1-[Dab]T[Dab][Dab][Dab][dL]L[Dab][Dab][dT]; lactam 4-C), the LD50 was 121 mg/kg.
Regarding `CCOCCc1ccc(OCCN=c2[nH]cnc(CC)c2Cl)c(C)c1C`, the LD50 was 115 mg/kg.
Regarding `CCCSP(=S)(OCC)Oc1ccc(Cl)cc1Cl` (stereo not given), the LD50 is 875 mg/kg.
For the molecule `CCC(C)(O)C#CC(C)(O)CC` (stereo not given), the LD50 was 1400 mg/kg.
As to `COc1nc(C)nc(NC(=O)NS(=O)(=O)c2ccccc2CCC(F)(F)F)n1`, the LD50 was 986 mg/kg.
With `NCCC[Si]12OCCN(CCO1)CCO2`, the LD50 is 5800 mg/kg.
Regarding `CCOP(=O)(OCC)SCCC(F)=C(F)F`, the LD50 was 68 mg/kg.
`CC(C=O)Cc1ccc(C(C)(C)C)cc1` (stereo not given): the 50% lethal dose (LD50) is 1390 mg/kg.
Take `CCn1cc(C(=O)O)c(=O)c2cnc(N3CCNCC3)nc21`: the LD50 is 16000 mg/kg.
Regarding `CCOc1cc(OP(=S)(OC)OC)nc(CC)n1`, the LD50 was 1800 mg/kg.
As for `CCCCN(CCO)CCO`, the LD50 is 4250 mg/kg.
As to `CN(C)CCCOc1nn(Cc2ccccc2)c2ccccc12`, the LD50 was 740 mg/kg and 950 mg/kg.
`COc1ccc2cc(C(C)C(=O)OCCO)ccc2c1` (stereo not given): the LD50 is 1720 mg/kg.
Take `COc1ccc2c(c1)C13CCCCC1C(C2)N(C)CC3` (stereo not given): the LD50 was 235 mg/kg.
In the case of `CCNC(C)c1ccccc1` (stereo not given), the LD50 was 360 mg/kg.
For `CN(C)/N=N/c1ccccc1C(=N)O`, the LD50 was 56 mg/kg.
As for `C=C(C)C(=O)OCC(C)C`, the LD50 was 9590 mg/kg.
With `Cn1c2c(c3ccccc31)CCN(CCCN1CCN(c3ccccc3)CC1)C2=O`, the LD50 was 650 mg/kg.
`COc1cc2[nH]c(=N)sc2cc1OC`: the LD50 is 1160 mg/kg.
For `NCc1ccc(S(N)(=O)=O)cc1`, the LD50 was 9210 mg/kg.
`O=S(=O)(C(Cl)CCl)C(Cl)CCl` (stereo not given): the LD50 is 250 mg/kg.
Consider `CCCCCCCCc1ccc(C(C[n+]2ccccc2)OCCCC)cc1` (stereo not given), for which the LD50 is 250 mg/kg.
With `Nc1c(I)cc(I)c(C(=O)N(CCC(=O)O)c2ccccc2)c1I`, the LD50 was 2800 mg/kg.
Regarding `COc1ccc(C(O)(c2cncnc2)C2CC2)cc1` (stereo not given), the LD50 is 4500 mg/kg.
Regarding `O=C(O)CNCC(=O)O`, the LD50 is 8070 mg/kg.
On to `O=C1N(Cl)C2C(N1Cl)N(Cl)C(=O)N2Cl` (stereo not given), for which the LD50 is 2150 mg/kg.
For the molecule `O=c1[nH]c2ccc(Cl)cc2o1`, the LD50 is 1200 mg/kg.
As for `O=C(O)CCc1nc2ccccc2[nH]1`, the LD50 is 1700 mg/kg.
For `CNC(=O)ON=C1CSC(C)CS1` (stereo not given), the LD50 is 5.1 mg/kg.
In the case of `Cc1cc(=O)c2c(C)ccc(C)c2o1`, the LD50 is 2960 mg/kg.
`Clc1ccc(OCOc2ccc(Cl)cc2)cc1`: the LD50 is 5800 mg/kg.
With `C=C(C)OC(C)=O`, the LD50 was 3000 mg/kg.
On to `CO[Si](CCCNCCC[Si](OC)(OC)OC)(OC)OC`, for which the LD50 was 3780 mg/kg.
As to `O=C(CCl)OCCOCCO`, the LD50 was 770 mg/kg.
In the case of `COP(=O)(NC=O)SC` (stereo not given), the LD50 was 190 mg/kg.
For the molecule `O[C@@H](c1cc(C(F)(F)F)nc2c(C(F)(F)F)cccc12)[C@H]1CCCCN1`, the LD50 was 880 mg/kg.
For the molecule `CN1CC2=C(C1)CN(c1c(F)cc3c(=O)c(C(=O)O)cn(C4CC4)c3c1F)C2`, the LD50 was 1060 mg/kg.
In the case of `O=C(O)CCCN1C(=O)c2cccc3cccc(c23)C1=O`, the LD50 is 4000 mg/kg.
`COC(=O)C1C2CC3c4[nH]c5cc(OC)ccc5c4CCN3CC2CC(OC2CCCCO2)C1OC` (stereo not given): the LD50 was 173 mg/kg.
As to `OCCOCCN1CCN(CCOC(c2ccccc2)c2ccc(Cl)cc2)CC1` (stereo not given), the LD50 is 800 mg/kg.
In the case of `CC1=C[C@H]2O[C@@H]3[C@H](O)[C@@H](O)[C@](C)([C@@]2(CO)[C@H](O)C1=O)[C@]31CO1`, the LD50 was 19.5 mg/kg.
In the case of `CCCCCCCCSCCO`, the LD50 was 8530 mg/kg.
On to `COC(=O)CC(SP(=O)(OC)OC)C(=O)OC` (stereo not given), for which the LD50 is 103 mg/kg.
As to `CCN1CCCc2ccccc21`, the LD50 was 1780 mg/kg.
In the case of `CCOC(=O)Nc1ccco1`, the LD50 was 1980 mg/kg.
